Measured values from publication PMC7265341, “Quantifying CDK inhibitor selectivity in live cells” (Nature Communications, 2020).
Like-named read-outs stand apart in the source and are kept apart here.

Assays:
[1] = target: CDK17/Cyclin Y (Homo sapiens, UniProt Q00537); assay: NanoBRET live-cell target engagement, CDK17-NanoLuc/Cyclin Y in HEK-293; format: binding; conditions: 10µM
[2] = target: CDK16/Cyclin Y (Homo sapiens, UniProt Q00536); assay: NanoBRET live-cell target engagement, CDK16-NanoLuc/Cyclin Y in HEK-293; format: binding; conditions: 10µM
[3] = target: CDK9/Cyclin K (Homo sapiens, UniProt P50750); assay: NanoBRET live-cell target engagement, NanoLuc-CDK9/Cyclin K in HEK-293; format: binding; conditions: 10µM
[4] = target: CDK10/Cyclin L2 (Homo sapiens, UniProt Q15131); assay: NanoBRET live-cell target engagement, CDK10-NanoLuc/Cyclin L2 in HEK-293; conditions: for IC50: read-out: CDK10/L2 IC50
[5] = target: T1, CDK11A/Cyclin L2 (Homo sapiens, UniProt Q9UQ88); assay: NanoBRET live-cell target engagement, CDK11A-NanoLuc/Cyclin L2 in HEK-293; format: binding
T1 sequence (Q9UQ88 1-783): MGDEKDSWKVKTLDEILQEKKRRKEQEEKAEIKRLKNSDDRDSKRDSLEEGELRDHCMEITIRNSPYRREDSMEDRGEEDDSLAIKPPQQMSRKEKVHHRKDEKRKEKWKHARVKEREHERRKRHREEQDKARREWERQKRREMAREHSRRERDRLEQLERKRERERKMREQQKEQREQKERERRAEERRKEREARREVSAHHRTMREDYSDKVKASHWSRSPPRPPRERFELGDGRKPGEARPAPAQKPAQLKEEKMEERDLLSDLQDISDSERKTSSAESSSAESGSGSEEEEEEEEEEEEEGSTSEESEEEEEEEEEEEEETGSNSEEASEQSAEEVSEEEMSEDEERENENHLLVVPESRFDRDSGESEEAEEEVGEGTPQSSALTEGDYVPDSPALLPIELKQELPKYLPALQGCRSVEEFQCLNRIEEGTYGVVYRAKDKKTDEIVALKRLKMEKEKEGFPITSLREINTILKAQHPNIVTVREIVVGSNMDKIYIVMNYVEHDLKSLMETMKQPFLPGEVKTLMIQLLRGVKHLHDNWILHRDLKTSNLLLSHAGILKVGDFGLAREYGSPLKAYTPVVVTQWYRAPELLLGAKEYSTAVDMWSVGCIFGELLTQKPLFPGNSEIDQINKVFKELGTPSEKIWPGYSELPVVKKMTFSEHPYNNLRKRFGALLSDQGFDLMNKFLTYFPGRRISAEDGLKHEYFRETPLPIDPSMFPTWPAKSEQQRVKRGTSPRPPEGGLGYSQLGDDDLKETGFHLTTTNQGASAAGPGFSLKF

[6] = target: CDK18/Cyclin Y (Homo sapiens, UniProt Q07002); assay: NanoBRET live-cell target engagement, CDK18-NanoLuc/Cyclin Y in HEK-293; format: binding; conditions: 10µM
[7] = target: CDK14/Cyclin Y (Homo sapiens, UniProt O94921); assay: NanoBRET live-cell target engagement, CDK14-NanoLuc/Cyclin Y in HEK-293; format: binding; conditions: 10µM
[8] = target: CDK7 (Homo sapiens, UniProt P50613); assay: NanoBRET live-cell target engagement, NanoLuc-CDK7 in HEK-293; format: binding; conditions: 10µM
[9] = target: CDK4/Cyclin D1 (Homo sapiens, UniProt P11802); assay: NanoBRET live-cell target engagement, NanoLuc-CDK4/Cyclin D1 in HEK-293; format: binding; conditions: 10µM
[10] = target: CDK19/Cyclin C (Homo sapiens, UniProt Q9BWU1); assay: NanoBRET live-cell target engagement, NanoLuc-CDK19/Cyclin C in HEK-293; conditions: 10µM
[11] = target: CDK8/Cyclin C (Homo sapiens, UniProt P49336); assay: NanoBRET live-cell target engagement, NanoLuc-CDK8/Cyclin C in HEK-293; format: binding; conditions: 10µM
[12] = target: CDK6/Cyclin D1 (Homo sapiens, UniProt Q00534); assay: NanoBRET live-cell target engagement, NanoLuc-CDK6/Cyclin D1 in HEK-293; format: binding; conditions: 10µM
[13] = target: CDK11B/Cyclin L2 (Homo sapiens, UniProt P21127); assay: NanoBRET live-cell target engagement, CDK11B-NanoLuc/Cyclin L2 in HEK-293; format: binding; conditions: 10µM
[14] = target: CDK15/Cyclin Y (Homo sapiens, UniProt Q96Q40); assay: NanoBRET live-cell target engagement, NanoLuc-CDK15/Cyclin Y in HEK-293; format: binding; conditions: 10µM
[15] = target: CDK2/Cyclin E1 (Homo sapiens, UniProt P24941); assay: NanoBRET live-cell target engagement, CDK2-NanoLuc/Cyclin E1 in HEK-293; format: binding; conditions: 10µM
[16] = target: CDK13/Cyclin K (Homo sapiens, UniProt Q14004); assay: NanoBRET live-cell target engagement, CDK13-NanoLuc/Cyclin K in HEK-293; format: binding
[17] = target: CDK20/Cyclin H (Homo sapiens, UniProt Q8IZL9); assay: NanoBRET live-cell target engagement, NanoLuc-CDK20/Cyclin H in HEK-293; format: binding; conditions: 10µM
[18] = target: CDK5/CDK5R1 (Homo sapiens, UniProt Q00535); assay: NanoBRET live-cell target engagement, CDK5-NanoLuc/CDK5R1 in HEK-293; format: binding; conditions: 10µM
[19] = target: CDK1/Cyclin E1 (Homo sapiens, UniProt P06493); assay: NanoBRET live-cell target engagement, CDK1-NanoLuc/Cyclin E1 in HEK-293; format: binding; conditions: 10µM

Chain of CDK13/Cyclin K (O75909 whole entry): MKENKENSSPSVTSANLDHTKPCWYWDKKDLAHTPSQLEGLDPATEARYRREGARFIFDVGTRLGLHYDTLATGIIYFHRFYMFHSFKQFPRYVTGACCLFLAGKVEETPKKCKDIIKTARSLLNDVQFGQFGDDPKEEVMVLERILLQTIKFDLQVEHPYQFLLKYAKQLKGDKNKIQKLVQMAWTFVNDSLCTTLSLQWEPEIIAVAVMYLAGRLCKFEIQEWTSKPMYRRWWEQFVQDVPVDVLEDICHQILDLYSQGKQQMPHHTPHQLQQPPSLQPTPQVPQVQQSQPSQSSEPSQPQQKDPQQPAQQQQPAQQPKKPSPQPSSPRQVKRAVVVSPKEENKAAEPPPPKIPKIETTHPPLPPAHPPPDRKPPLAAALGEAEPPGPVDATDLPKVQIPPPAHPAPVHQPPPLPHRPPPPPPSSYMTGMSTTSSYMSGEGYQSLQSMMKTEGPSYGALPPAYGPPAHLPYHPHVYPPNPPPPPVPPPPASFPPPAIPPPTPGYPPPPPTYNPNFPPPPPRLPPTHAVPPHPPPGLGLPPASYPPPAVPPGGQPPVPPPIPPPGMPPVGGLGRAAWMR
Chain of CDK13/Cyclin K (Q14004 other isoform, or with tags, fused parts or gaps): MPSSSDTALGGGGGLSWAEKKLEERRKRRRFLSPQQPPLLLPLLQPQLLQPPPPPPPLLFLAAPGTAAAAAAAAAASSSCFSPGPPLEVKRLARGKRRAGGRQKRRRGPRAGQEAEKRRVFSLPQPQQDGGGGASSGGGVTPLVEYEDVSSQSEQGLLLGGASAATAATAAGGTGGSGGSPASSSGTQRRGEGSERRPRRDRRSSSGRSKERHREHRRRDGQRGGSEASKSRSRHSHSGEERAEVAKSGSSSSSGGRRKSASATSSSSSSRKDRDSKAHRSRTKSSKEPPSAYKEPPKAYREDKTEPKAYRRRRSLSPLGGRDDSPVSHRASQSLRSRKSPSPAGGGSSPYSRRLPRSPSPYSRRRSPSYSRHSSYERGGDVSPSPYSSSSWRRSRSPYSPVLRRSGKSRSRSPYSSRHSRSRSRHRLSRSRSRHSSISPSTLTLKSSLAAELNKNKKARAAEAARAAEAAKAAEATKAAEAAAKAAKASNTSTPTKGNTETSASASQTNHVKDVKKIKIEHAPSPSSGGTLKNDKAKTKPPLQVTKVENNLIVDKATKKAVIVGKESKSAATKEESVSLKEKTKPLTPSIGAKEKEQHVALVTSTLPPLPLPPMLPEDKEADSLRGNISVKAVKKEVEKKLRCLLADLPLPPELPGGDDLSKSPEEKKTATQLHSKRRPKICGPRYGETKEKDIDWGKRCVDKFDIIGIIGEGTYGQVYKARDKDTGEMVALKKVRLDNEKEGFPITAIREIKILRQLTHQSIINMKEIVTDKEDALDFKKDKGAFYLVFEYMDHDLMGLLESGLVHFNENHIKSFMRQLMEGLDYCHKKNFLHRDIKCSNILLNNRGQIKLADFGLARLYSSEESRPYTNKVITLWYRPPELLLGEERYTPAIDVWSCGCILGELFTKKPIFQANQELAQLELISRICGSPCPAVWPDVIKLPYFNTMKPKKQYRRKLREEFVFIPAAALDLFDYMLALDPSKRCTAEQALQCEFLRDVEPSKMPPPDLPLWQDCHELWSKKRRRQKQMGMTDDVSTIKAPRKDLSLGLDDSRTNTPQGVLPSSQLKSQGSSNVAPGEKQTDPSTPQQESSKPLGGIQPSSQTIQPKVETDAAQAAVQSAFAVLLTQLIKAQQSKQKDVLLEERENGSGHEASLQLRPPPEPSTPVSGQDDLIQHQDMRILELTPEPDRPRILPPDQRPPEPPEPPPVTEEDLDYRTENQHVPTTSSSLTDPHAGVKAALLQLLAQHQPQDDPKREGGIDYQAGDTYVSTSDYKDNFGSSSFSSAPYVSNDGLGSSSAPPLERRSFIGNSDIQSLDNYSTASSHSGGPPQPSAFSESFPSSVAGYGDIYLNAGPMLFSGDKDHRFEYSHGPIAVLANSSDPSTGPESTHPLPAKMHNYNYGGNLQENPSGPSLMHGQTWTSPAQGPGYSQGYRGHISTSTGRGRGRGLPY
Chain of CDK15/Cyclin Y (Q96Q40 whole entry): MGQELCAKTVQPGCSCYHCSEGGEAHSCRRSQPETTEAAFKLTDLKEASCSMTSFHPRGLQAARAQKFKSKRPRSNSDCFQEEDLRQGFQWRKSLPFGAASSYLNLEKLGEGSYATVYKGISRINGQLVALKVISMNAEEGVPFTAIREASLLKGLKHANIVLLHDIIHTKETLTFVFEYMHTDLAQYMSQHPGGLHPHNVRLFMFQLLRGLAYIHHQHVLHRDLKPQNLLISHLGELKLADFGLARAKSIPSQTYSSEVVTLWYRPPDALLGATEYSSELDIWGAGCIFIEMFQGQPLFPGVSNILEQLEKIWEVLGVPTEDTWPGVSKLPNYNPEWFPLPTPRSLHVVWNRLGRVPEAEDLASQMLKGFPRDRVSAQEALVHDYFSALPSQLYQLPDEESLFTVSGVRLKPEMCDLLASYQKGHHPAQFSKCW
Chain of CDK15/Cyclin Y (Q8ND76 whole entry partner): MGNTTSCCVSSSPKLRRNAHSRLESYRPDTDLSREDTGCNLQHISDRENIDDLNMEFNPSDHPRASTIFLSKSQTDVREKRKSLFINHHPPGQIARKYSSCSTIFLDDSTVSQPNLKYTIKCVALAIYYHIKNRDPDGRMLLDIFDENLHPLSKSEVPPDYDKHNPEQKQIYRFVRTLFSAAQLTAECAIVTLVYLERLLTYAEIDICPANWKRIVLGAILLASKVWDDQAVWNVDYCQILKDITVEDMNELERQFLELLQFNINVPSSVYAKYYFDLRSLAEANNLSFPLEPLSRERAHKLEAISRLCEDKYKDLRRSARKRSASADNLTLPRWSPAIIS
Chain of CDK17/Cyclin Y (Q00537 whole entry): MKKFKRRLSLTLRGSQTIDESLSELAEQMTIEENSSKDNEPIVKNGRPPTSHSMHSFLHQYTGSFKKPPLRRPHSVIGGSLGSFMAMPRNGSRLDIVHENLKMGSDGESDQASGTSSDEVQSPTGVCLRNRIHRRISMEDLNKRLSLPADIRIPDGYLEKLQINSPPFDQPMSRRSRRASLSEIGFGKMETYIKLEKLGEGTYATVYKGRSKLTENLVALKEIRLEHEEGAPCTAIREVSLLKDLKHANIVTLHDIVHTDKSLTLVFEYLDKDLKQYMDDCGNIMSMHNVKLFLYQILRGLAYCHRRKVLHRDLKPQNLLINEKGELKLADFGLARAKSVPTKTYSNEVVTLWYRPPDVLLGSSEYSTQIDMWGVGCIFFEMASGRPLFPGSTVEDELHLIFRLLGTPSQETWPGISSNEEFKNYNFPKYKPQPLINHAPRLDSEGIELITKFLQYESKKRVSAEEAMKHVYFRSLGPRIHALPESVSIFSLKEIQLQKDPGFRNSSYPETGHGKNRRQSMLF
Chain of CDK17/Cyclin Y (Q8ND76 whole entry partner): as the sequence (Q8ND76 whole entry partner) above
Chain of CDK9/Cyclin K (P50750 whole entry): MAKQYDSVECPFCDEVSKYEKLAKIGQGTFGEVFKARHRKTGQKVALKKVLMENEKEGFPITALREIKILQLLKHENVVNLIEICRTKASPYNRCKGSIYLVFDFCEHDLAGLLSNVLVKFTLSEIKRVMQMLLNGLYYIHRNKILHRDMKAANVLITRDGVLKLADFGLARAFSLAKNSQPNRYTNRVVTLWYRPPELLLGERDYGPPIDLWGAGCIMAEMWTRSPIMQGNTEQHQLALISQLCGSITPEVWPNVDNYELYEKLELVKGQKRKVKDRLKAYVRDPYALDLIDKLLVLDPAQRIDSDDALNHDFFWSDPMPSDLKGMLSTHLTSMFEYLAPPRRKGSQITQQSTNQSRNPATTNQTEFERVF
Chain of CDK9/Cyclin K (O75909 whole entry partner): as the sequence (O75909 whole entry) above
Chain of CDK6/Cyclin D1 (Q00534 whole entry): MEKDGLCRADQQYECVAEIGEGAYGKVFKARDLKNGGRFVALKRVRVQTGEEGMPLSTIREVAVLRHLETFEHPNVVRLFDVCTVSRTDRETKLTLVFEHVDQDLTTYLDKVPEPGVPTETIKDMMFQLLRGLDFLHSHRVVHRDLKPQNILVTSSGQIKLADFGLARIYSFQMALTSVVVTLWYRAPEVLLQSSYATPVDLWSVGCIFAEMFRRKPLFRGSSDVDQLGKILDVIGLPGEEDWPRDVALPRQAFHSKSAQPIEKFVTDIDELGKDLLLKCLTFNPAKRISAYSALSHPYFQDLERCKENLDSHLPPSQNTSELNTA
Chain of CDK6/Cyclin D1 (P24385 whole entry partner): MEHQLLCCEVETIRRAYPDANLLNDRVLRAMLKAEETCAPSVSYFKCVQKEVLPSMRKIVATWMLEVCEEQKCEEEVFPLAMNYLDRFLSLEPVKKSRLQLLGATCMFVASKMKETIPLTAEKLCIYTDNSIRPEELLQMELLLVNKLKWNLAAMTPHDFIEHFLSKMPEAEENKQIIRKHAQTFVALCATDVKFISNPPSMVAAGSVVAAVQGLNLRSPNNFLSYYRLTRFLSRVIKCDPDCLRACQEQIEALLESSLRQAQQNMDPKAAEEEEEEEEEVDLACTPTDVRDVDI
Chain of CDK10/Cyclin L2 (Q15131 whole entry): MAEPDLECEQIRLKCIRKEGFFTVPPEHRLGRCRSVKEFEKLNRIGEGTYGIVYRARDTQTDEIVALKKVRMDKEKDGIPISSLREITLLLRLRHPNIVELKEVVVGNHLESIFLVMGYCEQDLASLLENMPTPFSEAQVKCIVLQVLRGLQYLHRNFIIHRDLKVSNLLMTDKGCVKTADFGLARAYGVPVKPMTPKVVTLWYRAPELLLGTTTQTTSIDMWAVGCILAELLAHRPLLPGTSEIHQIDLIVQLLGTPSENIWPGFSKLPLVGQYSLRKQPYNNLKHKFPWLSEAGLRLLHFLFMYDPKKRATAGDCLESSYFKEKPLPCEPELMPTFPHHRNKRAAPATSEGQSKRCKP

CN(C)C/C=C/C(=O)Nc1ccc(C(=O)Nc2cccc(Nc3ncc(Cl)c(-c4c[nH]c5ccccc45)n3)c2)cc1 [THZ1]
CDK17/Y Inhibition at 10µM (%) ([1]; average of experiments): 50.4%
CDK17/Y Inhibition at 10µM (%) ([1]; independent experiment 1): 73.0%
CDK17/Y Inhibition at 10µM (%) ([1]; independent experiment 2): 27.8%
CDK16/Y Inhibition at 10µM (%) ([2]; independent experiment 1): 74.4%
CDK16/Y Inhibition at 10µM (%) ([2]; independent experiment 2): 11.2%
CDK9/K Inhibition at 10µM (%) ([3]; average of experiments): 70.0%
CDK9/K Inhibition at 10µM (%) ([3]; independent experiment 1): 44.1%
CDK9/K Inhibition at 10µM (%) ([3]; independent experiment 2): 96.0%
CDK10/L2 Inhibition at 10µM (%) ([4]; average of experiments): 48.0%
CDK10/L2 Inhibition at 10µM (%) ([4]; independent experiment 1): 11.4%
CDK10/L2 Inhibition at 10µM (%) ([4]; independent experiment 2): 84.6%
IC50 ([4]; average (± SEM where n=3)): 1 ± 0.3 µM
IC50 ([4]; independent experiment 1): 0.66 µM
IC50 ([4]; independent experiment 2): 0.79 µM
IC50 ([4]; independent experiment 3): 1.5 µM
CDK11a/L2 Inhibition at 10µM (%) ([5]; average of experiments): 42.5%
CDK11a/L2 Inhibition at 10µM (%) ([5]; independent experiment 1): 8.0%
CDK11a/L2 Inhibition at 10µM (%) ([5]; independent experiment 2): 77.1%
IC50 ([5]; independent experiment 1, read-out: CDK11a/L2 IC50): 0.45 µM
IC50 ([5]; independent experiment 2, read-out: CDK11a/L2 IC50): 0.23 µM
IC50 ([5]; independent experiment 3, read-out: CDK11a/L2 IC50): 0.218 µM
IC50 ([5]; live HEK-293, 2 h, mean ± S.E.M. (n=3) or mean (n=2), read-out: IC50 for CDK/cyclin complexes, CDK11a/L2): 0.3 µM
CDK18/Y Inhibition at 10µM (%) ([6]; average of experiments): 48.6%
CDK18/Y Inhibition at 10µM (%) ([6]; independent experiment 1): 73.0%
CDK18/Y Inhibition at 10µM (%) ([6]; independent experiment 2): 24.3%
CDK14/Y Inhibition at 10µM (%) ([7]; average of experiments): 33.1%
CDK14/Y Inhibition at 10µM (%) ([7]; independent experiment 1): 6.6%
CDK14/Y Inhibition at 10µM (%) ([7]; independent experiment 2): 59.6%
CDK7 Inhibition at 10µM (%) ([8]; average of experiments): 83.9%
CDK7 Inhibition at 10µM (%) ([8]; independent experiment 1): 70.6%
CDK7 Inhibition at 10µM (%) ([8]; independent experiment 2): 97.1%
CDK4/D1 Inhibition at 10µM (%) ([9]; average of experiments): 53.8%
CDK4/D1 Inhibition at 10µM (%) ([9]; independent experiment 1): 13.3%
CDK4/D1 Inhibition at 10µM (%) ([9]; independent experiment 2): 94.2%
CDK19/C Inhibition at 10µM (%) ([10]; average of experiments): 66.6%
CDK19/C Inhibition at 10µM (%) ([10]; independent experiment 1): 44.1%
CDK19/C Inhibition at 10µM (%) ([10]; independent experiment 2): 89.1%
CDK8/C Inhibition at 10µM (%) ([11]; average of experiments): 62.9%
CDK8/C Inhibition at 10µM (%) ([11]; independent experiment 1): 34.6%
CDK8/C Inhibition at 10µM (%) ([11]; independent experiment 2): 91.2%
CDK6/D1 Inhibition at 10µM (%) ([12]; average of experiments): 73.8%
CDK6/D1 Inhibition at 10µM (%) ([12]; independent experiment 1): 53.8%
CDK6/D1 Inhibition at 10µM (%) ([12]; independent experiment 2): 93.8%
CDK11b/L2 Inhibition at 10µM (%) ([13]; average of experiments): 34.5%
CDK11b/L2 Inhibition at 10µM (%) ([13]; independent experiment 1): 13.3%
CDK11b/L2 Inhibition at 10µM (%) ([13]; independent experiment 2): 55.7%
CDK15/Y Inhibition at 10µM (%) ([14]; average of experiments): 64.9%
CDK15/Y Inhibition at 10µM (%) ([14]; independent experiment 1): 40.7%
CDK15/Y Inhibition at 10µM (%) ([14]; independent experiment 2): 89.2%
CDK2/E1 Inhibition at 10µM (%) ([15]; average of experiments): 16.1%
CDK2/E1 Inhibition at 10µM (%) ([15]; independent experiment 1): 27.6%
CDK2/E1 Inhibition at 10µM (%) ([15]; independent experiment 2): 4.6%
CDK13/K Inhibition at 10µM (%) ([16]; average of experiments): 48.1%
CDK13/K Inhibition at 10µM (%) ([16]; independent experiment 1): 34.3%
CDK13/K Inhibition at 10µM (%) ([16]; independent experiment 2): 62.0%
CDK13 occupancy at 10 µM ([16]; primary screen, live HEK-293): ~50%
CDK20/H Inhibition at 10µM (%) ([17]; independent experiment 1): 63.8%
CDK20/H Inhibition at 10µM (%) ([17]; independent experiment 2): 90.1%
CDK5/CDK5R1 Inhibition at 10µM (%) ([18]; average of experiments): 42.5%
CDK5/CDK5R1 Inhibition at 10µM (%) ([18]; independent experiment 1): 19.2%
CDK5/CDK5R1 Inhibition at 10µM (%) ([18]; independent experiment 2): 65.8%
CDK1/E1 Inhibition at 10µM (%) ([19]; average of experiments): 91.9%
CDK1/E1 Inhibition at 10µM (%) ([19]; independent experiment 1): 87.2%
CDK1/E1 Inhibition at 10µM (%) ([19]; independent experiment 2): 96.6%
